Test results reported in patent US20250008983A1, “COMPOSITIONS CONTAINING PEROXYACIDS TO CONTROL PATHOGEN GROWTH IN ANIMAL FEED AND RELATED METHODS” (KEMIN INDUSTRIES, INC., priority 2023, published 2025).
Several values for one entry are separate records, joined by “and”; a condition that tells them apart may be missing. Identical values can stand only once.

Test system: cocktail of four freeze-dried salmonella strains
Test: Peroxypropionic acid efficacy against Salmonella in swine feed
Format: cell-based, Salmonella typhimurium, senftenberg, montevideo, enteritidis
Settings: for Average CFU/g feed / Log CFU/g / Total CFU: 4 h; for Total counts in CFU at 4 h (n = 5): swine mash feed, PPA with sodium phosphate buffer (9:1), ~pH 7-8, five replicate cells
Text: Swine mash feed contains a bigger particle size of corn-soy matrix compared to broiler mash feed. Thus, it could pose a challenge to expect the same antimicrobial efficacy as observed in broiler feed due to the shielding effect. Therefore, to maximize the efficacy of the peroxypropionic acid on the swine feed, an optimal droplet size of the peroxypropionic acid was required to ensure maximum distribution of the product onto the feed. Swine mash feed of 25 g was taken in five individual bags and inoculated with 10 mg cocktail of four freeze-dried salmonella strains of Salmonella typhimurium ATCC 14028, Salmonella senftenberg ATCC 43485, Salmonella montevideo ATCC 8387, and Salmonella enteritidis ATCC 13076 in such a way that the total infection in the feed was ˜2 logs. Then, the feed samples were treated with peroxypropionic acid solution (˜17% PPA, 7% H2O2) and sodium phosphate buffer premix (9:1 ratio) at 1.5 kg/T, 3 Kg/T, and 6 Kg/T. The feed was enumerated completely for Salmonella count using EB plates at 4 h after treatment. Two untreated controls, NC-A and NC-B were kept as negative controls to represent the infection in the feed.

## CCC(=O)OO [Perpropionic acid, perpropionic acid]
1.5 Kg/T
  Average CFU/g feed: 18 CFU/g feed
  Log CFU/g: 1.26 Log CFU/g
  Total CFU: 90 CFU
3 Kg/T
  Average CFU/g feed: 0 CFU/g feed
  Log CFU/g: 0.00 Log CFU/g
  Total CFU: 0 CFU
  Total counts in CFU at 4 h (n = 5): 0 CFU
6 Kg/T
  Average CFU/g feed: 0 CFU/g feed
  Log CFU/g: 0.00 Log CFU/g
  Total CFU: 0 CFU
  Total counts in CFU at 4 h (n = 5): 0 CFU
1.5 Kg/T, listed as PPA
  Total counts in CFU at 4 h (n = 5): 20 CFU and 10 CFU (2×) and 50 CFU and 0 CFU
